From patent US20220281848A1, “PYRAZOLE-SUBSTITUTED PYRROLIDINONES AS HERBICIDES” (FMC Corporation, priority 2019, published 2022)

What was measured:
Type in all cases: in vivo
[1] = tested on: plants; experiment: Test D post-emergence, other plants of Tables D2 and D4; settings: post-emergence
Summary of the method: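 Damage was rated visually from 0 (none) to 100 (total), at 20 DAA for pre-emergence and 15 d for post-emergence. Plants grew from safener-treated seed in a glasshouse at 24/18° C. or 20/16° C. day/night, 65% humidity, watered twice daily.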

[2] = tested on: barnyardgrass (Echinochloa crus-galli, ECHCG); experiment: Test A pre-emergence, barnyardgrass; settings: after 13 d
Summary of the method: (§1)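 Seeds sown in pots of standard soil and sprayed one day later, pre-emergence, at 15.625, 62.5 or 250 g/ha in acetone/water (50:50) with 0.5% Tween 20. Grown in glasshouse at 24/16 °C, 14 h light, 65% humidity. Damage scored after 13 d (0 none, 100 total).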

[3] = tested on: ivy-leaved morning glory (Ipomoea hederacea, IPOHE); experiment: Test A pre-emergence, ivy-leaved morning glory; settings: after 13 d
Summary of the method: as §1

[4] = tested on: velvetleaf (Abutilon theophrasti, ABUTH); experiment: Test A pre-emergence, velvetleaf; settings: after 13 d
Summary of the method: as §1

[5] = tested on: corn (Zea mays, ZEAMX); experiment: Test A post-emergence, corn; settings: after 13 d
Summary of the method: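 Plants were grown 8 d in a glasshouse (24/16° C day/night, 14 h light, 65% humidity), then sprayed post-emergence at 15.625, 62.5 or 250 g/ha in acetone/water (50:50) with 0.5% Tween 20. Damage was scored visually after 13 d (0 = none, 100 = total).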

## COc1c(F)cccc1NC(=O)C1C(=O)N(C)CC1c1cc(C(F)(F)F)n(C)n1 (racemic) [Compound 18]
[1]; rate 250, evaluated after 15 d
  damage to plant (100=total damage to plant; 0=no damage to plant), BIDPI: 0
  damage to plant (100=total damage to plant; 0=no damage to plant), BRAPL: 70
  damage to plant (100=total damage to plant; 0=no damage to plant), CYPES: 0
  damage to plant (100=total damage to plant; 0=no damage to plant), DIGSA: 60
  damage to plant (100=total damage to plant; 0=no damage to plant), ECHCG: 60
  damage to plant (100=total damage to plant; 0=no damage to plant), ELEIN: 0
  damage to plant (100=total damage to plant; 0=no damage to plant), EPHHL: 10
  damage to plant (100=total damage to plant; 0=no damage to plant), GLXMA: 0
  damage to plant (100=total damage to plant; 0=no damage to plant), IPOHE: 20
  damage to plant (100=total damage to plant; 0=no damage to plant), ORYSA: 0
  damage to plant (100=total damage to plant; 0=no damage to plant), PANMI: 10
  damage to plant (100=total damage to plant; 0=no damage to plant), SETFA: 30
  damage to plant (100=total damage to plant; 0=no damage to plant), SORVU: 0
[1]; rate 500, evaluated after 15 d
  damage to plant (100=total damage to plant; 0=no damage to plant), BIDPI: 20
  damage to plant (100=total damage to plant; 0=no damage to plant), BRAPL: 80
  damage to plant (100=total damage to plant; 0=no damage to plant), CYPES: 0
  damage to plant (100=total damage to plant; 0=no damage to plant), DIGSA: 70
  damage to plant (100=total damage to plant; 0=no damage to plant), ECHCG: 70
  damage to plant (100=total damage to plant; 0=no damage to plant), ELEIN: 0
  damage to plant (100=total damage to plant; 0=no damage to plant), EPHHL: 20
  damage to plant (100=total damage to plant; 0=no damage to plant), GLXMA: 0
  damage to plant (100=total damage to plant; 0=no damage to plant), IPOHE: 30
  damage to plant (100=total damage to plant; 0=no damage to plant), ORYSA: 0
  damage to plant (100=total damage to plant; 0=no damage to plant), PANMI: 10
  damage to plant (100=total damage to plant; 0=no damage to plant), SETFA: 70
  damage to plant (100=total damage to plant; 0=no damage to plant), SORVU: 0
[1]; rate 130, evaluated after 15 d
  damage to plant (100=total damage to plant; 0=no damage to plant), BRAPL: 60
  damage to plant (100=total damage to plant; 0=no damage to plant), CYPES: 0
  damage to plant (100=total damage to plant; 0=no damage to plant), DIGSA: 30
  damage to plant (100=total damage to plant; 0=no damage to plant), ECHCG: 0
  damage to plant (100=total damage to plant; 0=no damage to plant), ELEIN: 0
  damage to plant (100=total damage to plant; 0=no damage to plant), EPHHL: 0
  damage to plant (100=total damage to plant; 0=no damage to plant), GLXMA: 0
  damage to plant (100=total damage to plant; 0=no damage to plant), IPOHE: 0
  damage to plant (100=total damage to plant; 0=no damage to plant), ORYSA: 0
  damage to plant (100=total damage to plant; 0=no damage to plant), PANMI: 0
  damage to plant (100=total damage to plant; 0=no damage to plant), SETFA: 0
  damage to plant (100=total damage to plant; 0=no damage to plant), SORVU: 0
[2]; Pre-Emergence at 15.625 g/ha
  damage to plant (100=total damage; 0=no damage) ECHCG: 90
[2]; Pre-Emergence at 62.5 g/ha
  damage to plant (100=total damage; 0=no damage) ECHCG: 90
[2]; Pre-Emergence at 250 g/ha
  damage to plant (100=total damage; 0=no damage) ECHCG: 90
[3]; Pre-Emergence at 15.625 g/ha
  damage to plant (100=total damage; 0=no damage) IPOHE: 10
[3]; Pre-Emergence at 62.5 g/ha
  damage to plant (100=total damage; 0=no damage) IPOHE: 10
[3]; Pre-Emergence at 250 g/ha
  damage to plant (100=total damage; 0=no damage) IPOHE: 20
[4]; Pre-Emergence at 15.625 g/ha
  damage to plant (100=total damage; 0=no damage) ABUTH: 0
[4]; Pre-Emergence at 62.5 g/ha
  damage to plant (100=total damage; 0=no damage) ABUTH: 0
[4]; Pre-Emergence at 250 g/ha
  damage to plant (100=total damage; 0=no damage) ABUTH: 0
[5]; Post-Emergence at 15.625 g/ha
  damage to plant (100=total damage; 0=no damage) ZEAMX: 0
[5]; Post-Emergence at 62.5 g/ha
  damage to plant (100=total damage; 0=no damage) ZEAMX: 30
[5]; Post-Emergence at 250 g/ha
  damage to plant (100=total damage; 0=no damage) ZEAMX: 80
